Experimental data from ChEMBL document CHEMBL1201862, “PubChem BioAssay data set” (2004).
Values joined by “and” are separate entries in the source; they are usually repeats but may differ in a detail not shown here. Equal values may be shown once. Active and inactive are the calls of the source.

Assays:
[1] = inhibitors of PGC1a acetylation in cells, dose response, cell-based, cherry-picked samples (AID 720514); format: functional;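 further: potency may reflect raised or lowered acetylation signal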
[2] = molecular target: T1, Short transient receptor potential channel 4 (Mus musculus, UniProt Q9QUQ5); test: mouse TRPC4 channel inhibitors, dose response, cell-based, HEK293 TRPC4/mu-opioid, Fluo-4 calcium (AID 434942); format: functional;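 further: potency of inhibitors blocking the TRPC4 calcium response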
T1 sequence (Q9QUQ5 whole entry): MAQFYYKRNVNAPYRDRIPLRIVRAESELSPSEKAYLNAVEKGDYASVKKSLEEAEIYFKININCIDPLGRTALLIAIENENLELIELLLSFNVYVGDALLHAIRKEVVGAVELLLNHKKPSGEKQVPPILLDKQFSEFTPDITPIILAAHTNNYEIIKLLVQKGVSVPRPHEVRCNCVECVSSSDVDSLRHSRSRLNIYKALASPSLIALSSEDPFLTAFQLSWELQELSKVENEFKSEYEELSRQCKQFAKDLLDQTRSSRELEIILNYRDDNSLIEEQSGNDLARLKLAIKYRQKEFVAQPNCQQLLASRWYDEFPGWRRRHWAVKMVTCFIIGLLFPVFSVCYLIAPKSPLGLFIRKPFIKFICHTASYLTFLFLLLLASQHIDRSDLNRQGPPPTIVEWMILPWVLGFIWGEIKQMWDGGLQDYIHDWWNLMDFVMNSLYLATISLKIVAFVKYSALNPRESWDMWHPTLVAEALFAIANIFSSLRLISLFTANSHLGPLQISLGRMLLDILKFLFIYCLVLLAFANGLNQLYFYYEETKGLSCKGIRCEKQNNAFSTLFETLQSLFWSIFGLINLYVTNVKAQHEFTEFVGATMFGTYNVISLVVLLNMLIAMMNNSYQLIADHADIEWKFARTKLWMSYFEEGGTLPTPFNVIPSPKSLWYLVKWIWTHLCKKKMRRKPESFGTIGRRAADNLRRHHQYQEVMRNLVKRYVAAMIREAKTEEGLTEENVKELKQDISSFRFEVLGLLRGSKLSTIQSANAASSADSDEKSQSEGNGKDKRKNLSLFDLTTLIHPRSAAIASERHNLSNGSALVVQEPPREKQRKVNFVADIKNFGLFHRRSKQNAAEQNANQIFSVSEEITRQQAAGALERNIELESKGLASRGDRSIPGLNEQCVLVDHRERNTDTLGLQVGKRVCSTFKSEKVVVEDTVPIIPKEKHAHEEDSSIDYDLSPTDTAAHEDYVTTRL

[3] = cytotoxicity toward NIH3T3 fibroblasts, dose response, counter-screen, cell-based, ATP luminescence, mouse fibroblasts (AID 2010); format: functional;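 further: cells exposed to compound for about 90 hours before reading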
[4] = inhibitors of intracellular T. cruzi replication, confirmation, NIH3T3 host cells, beta-gal luminescence (AID 2044); format: functional, cell-based;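 further: intracellular parasites grown in NIH/3T3 mouse fibroblasts as host cells; luminescent beta-galactosidase reporter signal from transgenic T. cruzi replicating inside host cells; inhibitors lower the luminescence signal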
[5] = Artemis endonuclease inhibitor potency, dose response, biochemical, fluorescence intensity (AID 720701); format: functional;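 further: Artemis endonuclease enzyme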
[6] = molecular target: Kappa-type opioid receptor (Homo sapiens, UniProt P41145); test: Late-stage fluorescence-based cell-based dose response assay for antagonists of kappa opioid receptor 1 (OPRK1).; format: functional
Chain of Kappa-type opioid receptor (P41145 whole entry): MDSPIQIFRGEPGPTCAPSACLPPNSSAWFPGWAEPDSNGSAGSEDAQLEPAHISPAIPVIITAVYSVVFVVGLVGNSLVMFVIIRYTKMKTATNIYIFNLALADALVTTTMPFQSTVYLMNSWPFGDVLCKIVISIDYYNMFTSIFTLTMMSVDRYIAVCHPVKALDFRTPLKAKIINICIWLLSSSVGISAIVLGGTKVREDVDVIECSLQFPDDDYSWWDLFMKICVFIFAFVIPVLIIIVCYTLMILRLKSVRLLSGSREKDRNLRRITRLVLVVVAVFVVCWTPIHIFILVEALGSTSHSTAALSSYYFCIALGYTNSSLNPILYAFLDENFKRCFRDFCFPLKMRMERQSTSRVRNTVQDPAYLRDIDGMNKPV

Mu-type opioid receptor = Mu-type opioid receptor (Homo sapiens, UniProt P35372); test: Late-stage results from the probe development effort to identify antagonists of OPRK1: luminescence-based cell-based dose response OPRM1 counterscreen, Set 2.; format: functional
Chain of Mu-type opioid receptor (P35372 whole entry): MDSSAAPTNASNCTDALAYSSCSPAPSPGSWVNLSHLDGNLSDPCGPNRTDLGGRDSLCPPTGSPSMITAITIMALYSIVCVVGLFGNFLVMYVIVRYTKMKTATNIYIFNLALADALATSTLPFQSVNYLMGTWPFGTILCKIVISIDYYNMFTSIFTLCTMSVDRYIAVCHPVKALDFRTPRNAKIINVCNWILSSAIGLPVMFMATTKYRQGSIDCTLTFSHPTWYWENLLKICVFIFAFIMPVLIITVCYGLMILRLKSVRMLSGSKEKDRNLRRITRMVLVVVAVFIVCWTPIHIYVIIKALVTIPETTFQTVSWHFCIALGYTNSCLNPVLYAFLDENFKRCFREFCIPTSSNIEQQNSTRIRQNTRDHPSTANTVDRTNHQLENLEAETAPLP

[7] = molecular target: Delta-type opioid receptor (Homo sapiens, UniProt P41143); test: Late-stage results from the probe development effort to identify antagonists of OPRK1: fluorescence-based cell-based dose response OPRD1 counterscreen, Set 2.; format: functional
Chain of Delta-type opioid receptor (P41143 whole entry): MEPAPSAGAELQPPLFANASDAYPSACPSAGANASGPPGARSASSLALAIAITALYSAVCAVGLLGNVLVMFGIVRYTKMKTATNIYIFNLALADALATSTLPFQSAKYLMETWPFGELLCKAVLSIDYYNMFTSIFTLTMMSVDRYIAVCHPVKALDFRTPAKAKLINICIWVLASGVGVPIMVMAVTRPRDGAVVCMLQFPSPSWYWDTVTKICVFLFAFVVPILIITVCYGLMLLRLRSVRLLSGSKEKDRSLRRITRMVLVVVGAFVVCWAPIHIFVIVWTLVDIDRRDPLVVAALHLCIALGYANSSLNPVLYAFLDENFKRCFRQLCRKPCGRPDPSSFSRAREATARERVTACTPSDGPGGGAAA

[8] = molecular target: Sphingosine 1-phosphate receptor 1 (Homo sapiens, UniProt P21453); test: Late-stage counterscreen for antagonists of kappa opioid receptor 1 (OPRK1): fluorescence-based cell-based dose response assay to identify antagonists of Sphingosine 1-Phosphate Receptor 1 (S1P1).; format: functional
Chain of Sphingosine 1-phosphate receptor 1 (P21453 whole entry): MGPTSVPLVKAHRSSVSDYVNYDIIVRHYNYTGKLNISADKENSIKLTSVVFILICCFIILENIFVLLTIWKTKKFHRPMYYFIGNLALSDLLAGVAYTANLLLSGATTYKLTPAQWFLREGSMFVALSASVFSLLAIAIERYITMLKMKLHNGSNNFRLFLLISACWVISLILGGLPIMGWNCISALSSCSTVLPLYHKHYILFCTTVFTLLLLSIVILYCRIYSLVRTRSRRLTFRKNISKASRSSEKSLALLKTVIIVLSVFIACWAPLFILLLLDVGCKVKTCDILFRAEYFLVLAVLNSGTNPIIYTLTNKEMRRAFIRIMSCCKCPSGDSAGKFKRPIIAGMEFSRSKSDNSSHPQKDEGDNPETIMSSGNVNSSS

HeLa = test: HeLa cell cytotoxicity, dose response, cytotoxicity control, ATP luminescence, cherry-pick samples (AID 687004); format: functional, cell-based; settings: Homo sapiens
[9] = HEK293 Cytotoxicity Assay Measured in Cell-Based System Using Plate Reader - 7071-01_Inhibitor_Dose_CherryPick_Activity_Set2.; format: functional
HEK293 = test: HEK293T cell cytotoxicity, dose response, cytotoxicity control, ATP luminescence, cherry-pick samples (AID 687005); format: functional, cell-based; settings: Homo sapiens;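 further: cells exposed to compound for 48 hours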
[10] = HIV Env cell-cell fusion inhibitors, dose response, HIV entry, plate reader, dry powder (AID 687023); format: functional, cell-based
[11] = CEM21 cell cytotoxicity, dose response, cytotoxicity control, plate reader, dry powder (AID 687026); format: functional, cell-based
[12] = HepG2 cell cytotoxicity, dose response, cytotoxicity control, ATP luminescence, dry powder, Set4 (AID 743143); format: functional, cell-based
[13] = HepG2 hepatoma cell cytotoxicity, dose response, cytotoxicity control, CellTiter-Glo luminescence, dry powder, set 3 (AID 720594); format: functional, cell-based
[14] = HeLa cell cytotoxicity, dose response, cytotoxicity control, CellTiter-Glo luminescence, dry powder, set 2 (AID 720593); format: functional, cell-based
[15] = A375 melanoma cell cytotoxicity, dose response, counter-screen for MITF inhibitor project, CellTiter-Glo luminescence, dry powder, set 2 (AID 624489); format: functional, cell-based; settings: A-375;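 further: actives are compounds lowering A375 viability meaning general cytotoxicity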
[16] = inhibitors of SNCA 5'UTR-driven reporter translation, confirmation, H4 neuroglioma cells, luminescence (AID 1988); format: functional, cell-based
[17] = molecular target: Lysine-specific demethylase 4C (Homo sapiens, UniProt Q9H3R0); test: GASC-1 (JMJD2C) histone demethylase inhibitors, dose response, biochemical, DELFIA europium, cherry-picked samples (AID 488835); format: functional
Chain of Lysine-specific demethylase 4C (Q9H3R0 whole entry): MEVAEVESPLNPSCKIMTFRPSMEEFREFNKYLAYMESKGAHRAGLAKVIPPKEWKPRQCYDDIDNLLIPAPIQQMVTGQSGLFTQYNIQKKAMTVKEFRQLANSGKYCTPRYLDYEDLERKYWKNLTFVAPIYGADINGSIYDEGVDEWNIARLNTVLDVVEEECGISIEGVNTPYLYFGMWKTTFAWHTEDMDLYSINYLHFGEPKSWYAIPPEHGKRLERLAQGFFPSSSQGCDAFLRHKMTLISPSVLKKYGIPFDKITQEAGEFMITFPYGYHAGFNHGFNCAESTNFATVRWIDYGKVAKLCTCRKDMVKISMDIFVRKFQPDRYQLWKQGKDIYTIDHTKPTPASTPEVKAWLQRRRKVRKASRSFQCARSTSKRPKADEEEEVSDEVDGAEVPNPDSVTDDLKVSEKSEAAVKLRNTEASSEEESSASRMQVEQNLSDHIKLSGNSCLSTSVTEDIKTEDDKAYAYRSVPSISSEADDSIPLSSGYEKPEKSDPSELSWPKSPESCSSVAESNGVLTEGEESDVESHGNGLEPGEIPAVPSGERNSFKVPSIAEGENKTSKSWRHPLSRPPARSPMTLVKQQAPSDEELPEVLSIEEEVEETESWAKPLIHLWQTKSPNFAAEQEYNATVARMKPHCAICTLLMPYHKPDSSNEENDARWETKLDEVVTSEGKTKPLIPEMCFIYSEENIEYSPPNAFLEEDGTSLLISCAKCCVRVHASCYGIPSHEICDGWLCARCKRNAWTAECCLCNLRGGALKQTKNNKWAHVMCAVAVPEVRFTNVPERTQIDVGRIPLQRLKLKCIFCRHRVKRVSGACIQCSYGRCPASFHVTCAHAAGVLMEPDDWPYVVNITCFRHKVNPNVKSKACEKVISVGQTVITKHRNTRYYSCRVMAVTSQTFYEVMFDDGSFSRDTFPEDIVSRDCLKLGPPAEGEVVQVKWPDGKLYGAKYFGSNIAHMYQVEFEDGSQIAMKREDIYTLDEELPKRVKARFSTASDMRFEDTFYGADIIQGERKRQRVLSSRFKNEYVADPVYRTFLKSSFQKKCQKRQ

[18] = molecular target: T2, Microphthalmia-associated transcription factor (Homo sapiens, UniProt O75030); test: TRPM1 promoter luciferase signal decrease, dose response, MITF inhibitor project, cell-based, SK-MEL-5, cherry-picked, set 3 (AID 493073); format: functional
T2 sequence (O75030 whole entry): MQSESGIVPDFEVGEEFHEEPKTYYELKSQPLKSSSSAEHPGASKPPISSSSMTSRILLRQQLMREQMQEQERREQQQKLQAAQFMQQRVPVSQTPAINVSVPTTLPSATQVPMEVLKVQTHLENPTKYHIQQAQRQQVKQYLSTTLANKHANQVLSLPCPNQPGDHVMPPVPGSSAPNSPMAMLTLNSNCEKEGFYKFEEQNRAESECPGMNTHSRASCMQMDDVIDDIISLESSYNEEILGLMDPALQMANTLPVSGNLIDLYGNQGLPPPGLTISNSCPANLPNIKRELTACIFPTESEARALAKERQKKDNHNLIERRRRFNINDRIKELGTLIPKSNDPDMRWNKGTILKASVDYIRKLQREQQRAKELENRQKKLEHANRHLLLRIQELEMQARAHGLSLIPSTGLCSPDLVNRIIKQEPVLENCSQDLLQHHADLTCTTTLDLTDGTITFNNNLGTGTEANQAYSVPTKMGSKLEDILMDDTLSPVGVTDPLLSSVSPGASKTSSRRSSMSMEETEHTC

[19] = growth suppression of PTEN-null colon cells, dose response, cell-based, HCT116 PTEN knockout (AID 1047); format: functional;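 further: HCT116 colon tumor cells with PTEN knocked out; cells exposed to compound for 60 hours before readout; potency for loss of cell viability measured by luminescence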
[20] = Luminescence Cell-Based Dose Response HTS to Identify Inhibitors of 5'UTR Stem-Loop Driven Prion Protein mRNA Translation in H4 Neuroglioblastoma Cells. [Related pubchem assays: 1827 (Project Summary), 1813 (Primary HTS)]; format: functional
[21] = cytotoxicity in HEK-293T cells, dose response, cytotoxicity control for TCR NF-kB inhibitor project, luminescence, T-cell screen hits (AID 489026); format: functional, cell-based;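 further: cells exposed to compound about 14 hours before the viability readout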
[22] = growth suppression of beta-catenin-knockout colon cells, dose response, cell-based, HCT116, human colon tumor (AID 1045); format: functional;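 further: HCT116 colon tumor cells with beta catenin knocked out; cells exposed to compound for 60 hours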
[23] = molecular target: T3, Replicative DNA helicase DnaB (Mycobacterium tuberculosis, UniProt P9WMR3); test: DnaB intein splicing inhibitors, dose response, biochemical, cell-free fluorescence (AID 449749); format: functional
T3 sequence (P9WMR3 whole entry): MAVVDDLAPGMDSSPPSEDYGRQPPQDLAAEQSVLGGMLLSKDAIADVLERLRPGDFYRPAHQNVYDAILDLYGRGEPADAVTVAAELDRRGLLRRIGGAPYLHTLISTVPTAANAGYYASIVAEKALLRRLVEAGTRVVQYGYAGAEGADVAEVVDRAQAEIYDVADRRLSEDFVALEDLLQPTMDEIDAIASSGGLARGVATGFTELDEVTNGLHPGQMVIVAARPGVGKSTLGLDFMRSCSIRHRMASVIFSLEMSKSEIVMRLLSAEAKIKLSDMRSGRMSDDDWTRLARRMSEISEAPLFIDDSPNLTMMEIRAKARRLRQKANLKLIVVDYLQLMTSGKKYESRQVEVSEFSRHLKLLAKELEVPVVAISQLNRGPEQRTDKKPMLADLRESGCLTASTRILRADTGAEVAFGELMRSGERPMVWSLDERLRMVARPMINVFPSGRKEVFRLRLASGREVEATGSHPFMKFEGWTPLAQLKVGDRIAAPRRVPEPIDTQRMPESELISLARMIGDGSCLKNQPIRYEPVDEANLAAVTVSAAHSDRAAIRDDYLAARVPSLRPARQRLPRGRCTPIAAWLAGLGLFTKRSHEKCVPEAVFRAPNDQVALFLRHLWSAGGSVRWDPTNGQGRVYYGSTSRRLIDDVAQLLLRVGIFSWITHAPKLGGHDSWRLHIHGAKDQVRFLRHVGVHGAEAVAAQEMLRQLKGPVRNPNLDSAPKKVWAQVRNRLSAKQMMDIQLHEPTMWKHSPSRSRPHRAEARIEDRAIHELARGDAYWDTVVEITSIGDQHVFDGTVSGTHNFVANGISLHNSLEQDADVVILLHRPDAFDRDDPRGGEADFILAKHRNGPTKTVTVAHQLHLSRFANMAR

Protein RecA = molecular target: T4, Protein RecA (Mycobacterium tuberculosis, UniProt P9WHJ3); test: Fluorescence Cell-Free Homogeneous Dose Retest to Identify Inhibitors of RecA-Intein Splicing Activity. [Related pubchem assays (depositor defined):AID2097, AID2223, AID489010, AID492950]; format: functional
T4 sequence (P9WHJ3 whole entry): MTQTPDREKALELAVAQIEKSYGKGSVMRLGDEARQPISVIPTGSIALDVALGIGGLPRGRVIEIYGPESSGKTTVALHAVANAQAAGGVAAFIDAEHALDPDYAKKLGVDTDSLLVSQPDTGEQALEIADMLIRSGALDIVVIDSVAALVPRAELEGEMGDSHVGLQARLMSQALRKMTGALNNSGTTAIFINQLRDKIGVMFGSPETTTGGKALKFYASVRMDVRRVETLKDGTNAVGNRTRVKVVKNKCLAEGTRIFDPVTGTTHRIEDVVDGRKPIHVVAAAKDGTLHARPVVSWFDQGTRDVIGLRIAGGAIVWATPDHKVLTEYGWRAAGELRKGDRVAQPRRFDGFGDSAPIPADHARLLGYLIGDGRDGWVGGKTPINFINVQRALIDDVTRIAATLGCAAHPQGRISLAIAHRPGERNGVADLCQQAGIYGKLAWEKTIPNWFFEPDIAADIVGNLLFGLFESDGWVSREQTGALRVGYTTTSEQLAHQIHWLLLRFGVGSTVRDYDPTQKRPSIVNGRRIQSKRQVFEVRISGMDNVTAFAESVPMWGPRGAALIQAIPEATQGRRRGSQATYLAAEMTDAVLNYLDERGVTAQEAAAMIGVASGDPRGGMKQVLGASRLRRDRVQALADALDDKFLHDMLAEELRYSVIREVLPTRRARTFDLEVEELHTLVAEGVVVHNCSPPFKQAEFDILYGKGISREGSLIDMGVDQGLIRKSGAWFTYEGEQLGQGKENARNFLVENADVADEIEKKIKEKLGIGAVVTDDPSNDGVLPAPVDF

[24] = inhibitors of firefly luciferase expression or activity, dose response, H4 neuroglioma cells, luminescence (AID 1990); format: functional, cell-based
INS1 = test: beta cell apoptosis inhibitors, cytokine rescue, dose response, luminescence, retest (AID 449756); format: functional, cell-based; settings: Rattus norvegicus;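 further: cell death triggered by IL-1 beta plus TNF-alpha plus IFN-gamma mixture; protective hits raise ATP signal compared with cytokine alone wells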
[25] = A375 melanoma cell viability loss, dose response, counter-screen for MITF inhibitor project, CellTiter-Glo luminescence, dry powder, set 4 (AID 624364); format: functional, cell-based; settings: A-375;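 further: A375 melanoma cells are MITF independent so this is a counter screen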

CCOC(=O)C1(Cc2cccc(F)c2)CCN(Cc2c(C)nn(CC)c2C)CC1
AC50 [1]: 28.8 µM (active)
EC50 [2]: 1.06 µM (active)

CCOC(=O)c1c(NC(=O)CSc2n[nH]c3c4ccccc4nc-3n2)sc2c1CCN(C)C2
EC50 [3]: > 60 µM (not active)
EC50 [4]: 0.161 µM (active)
IC50 [5]: 10 µM (active)

COc1cc([N+](=O)[O-])c(OC)cc1SCc1nnc(S)n1-c1ccc(C)cc1
IC50 [6]: 2.2 µM (active)
IC50 (Mu-type opioid receptor): > 50 µM (inactive)
IC50 [7]: > 50 µM (inactive)
IC50 [8]: > 50 µM (inactive)

Cc1cccc(-c2ccc([C@@H]3[C@H]4CN(C(=O)c5ccc6c(c5)OCO6)CCCCN4[C@H]3CO)cc2)c1
AC50 (HeLa): 20.2 µM (active)
AC50 [9]: 8.23 µM (active)
AC50 (HEK293): 8.23 µM (active)

O=S(=O)(NCc1ccncc1)c1ccc2c(c1)OCCO2
AC50 [10]: 125 nM (active) and 167 nM (active)
AC50 [11]: > 70 µM (inactive)

O=C(CCn1cnc2ccccc2c1=O)NC1CCCc2ccccc21 (stereo not given)
AC50 [12]: > 52 µM (inactive)

COc1ccc(-c2nnc(NC(=O)c3ccc(S(=O)(=O)N4CCC(C)CC4)cc3)o2)cc1
AC50 [13]: > 52 µM (inactive)
AC50 [14]: > 52 µM (inactive)

CC(=O)N(C)C1=C(N2CCOCC2)C(=O)c2ccccc2C1=O
AC50 [15]: 13.9 µM (active)
EC50 [16]: 7.74 µM (active)
AC50 [17]: 31.2 µM (active)
AC50 [18]: 3.5 µM (active)
EC50 [19]: 1.91 µM (active)
EC50 [20]: 11.7 µM (active)
IC50 [21]: 4.03 µM (active)
EC50 [22]: 1.81 µM (active)
AC50 [23]: 51.3 µM (active)
EC50 (Protein RecA): 38.4 µM (active)
EC50 [24]: 10.8 µM (active)
AC50 (INS1): 1.67 µM (active)
AC50 [25]: 32.1 µM (active)
